Reference: paper PMC9927415, “Tyrosine Kinase Inhibitors Display Potent Activity against Cryptosporidium parvum” (Microbiology Spectrum, 2022)

How the values were obtained:
Assay in all cases: KINOMEscan competitive binding, whole panel
[1] = target: T1, panel of 203 kinases (Homo sapiens, UniProt Q8N5S9); settings: 10 µM, n=1; kinase CAMKK1; read-out: Percent inhibition CAMKK1
T1 construct: purchased DiscoverX (KINOMEscan)
How it was run: (§1)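 This competitive binding format measures displacement of T7 phage-tagged kinases from an immobilized ATP-site ligand by the test compound; values are percentage inhibition.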

[2] = target: T2, panel of 203 kinases (Homo sapiens, UniProt P07333); settings: 10 µM, n=1; kinase CSF1R; read-out: Percent inhibition CSF1R
T2 construct: purchased DiscoverX (KINOMEscan)
T2 sequence (P07333 20-972): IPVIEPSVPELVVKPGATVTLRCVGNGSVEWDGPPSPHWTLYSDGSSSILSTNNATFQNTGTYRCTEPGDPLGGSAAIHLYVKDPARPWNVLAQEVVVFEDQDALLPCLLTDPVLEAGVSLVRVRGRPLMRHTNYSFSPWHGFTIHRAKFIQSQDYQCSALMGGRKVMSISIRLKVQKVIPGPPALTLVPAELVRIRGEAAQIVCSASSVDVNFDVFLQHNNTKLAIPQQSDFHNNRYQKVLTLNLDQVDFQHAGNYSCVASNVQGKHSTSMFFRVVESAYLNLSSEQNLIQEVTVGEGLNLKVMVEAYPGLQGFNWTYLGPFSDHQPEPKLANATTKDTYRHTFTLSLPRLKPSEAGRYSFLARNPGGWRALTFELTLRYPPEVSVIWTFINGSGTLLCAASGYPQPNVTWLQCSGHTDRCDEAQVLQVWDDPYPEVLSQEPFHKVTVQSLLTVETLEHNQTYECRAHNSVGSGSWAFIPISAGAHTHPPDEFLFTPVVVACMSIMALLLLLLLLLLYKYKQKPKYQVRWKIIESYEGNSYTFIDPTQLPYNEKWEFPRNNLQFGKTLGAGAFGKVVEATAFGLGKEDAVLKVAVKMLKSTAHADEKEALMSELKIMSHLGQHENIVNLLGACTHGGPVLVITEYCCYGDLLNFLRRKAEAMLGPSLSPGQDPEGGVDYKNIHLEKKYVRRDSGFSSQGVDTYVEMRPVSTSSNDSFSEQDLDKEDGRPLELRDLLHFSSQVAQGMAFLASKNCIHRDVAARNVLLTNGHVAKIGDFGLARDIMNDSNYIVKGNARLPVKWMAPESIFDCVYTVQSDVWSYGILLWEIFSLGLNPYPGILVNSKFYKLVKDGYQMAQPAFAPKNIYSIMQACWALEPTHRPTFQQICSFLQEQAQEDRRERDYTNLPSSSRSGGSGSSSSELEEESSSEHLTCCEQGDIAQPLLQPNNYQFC
How it was run: as §1

[3] = target: T3, panel of 203 kinases (Homo sapiens, UniProt Q92918); settings: 10 µM, n=1; kinase MAP4K1; read-out: Percent inhibition MAP4K1
T3 construct: purchased DiscoverX (KINOMEscan)
T3 sequence (Q92918 whole entry): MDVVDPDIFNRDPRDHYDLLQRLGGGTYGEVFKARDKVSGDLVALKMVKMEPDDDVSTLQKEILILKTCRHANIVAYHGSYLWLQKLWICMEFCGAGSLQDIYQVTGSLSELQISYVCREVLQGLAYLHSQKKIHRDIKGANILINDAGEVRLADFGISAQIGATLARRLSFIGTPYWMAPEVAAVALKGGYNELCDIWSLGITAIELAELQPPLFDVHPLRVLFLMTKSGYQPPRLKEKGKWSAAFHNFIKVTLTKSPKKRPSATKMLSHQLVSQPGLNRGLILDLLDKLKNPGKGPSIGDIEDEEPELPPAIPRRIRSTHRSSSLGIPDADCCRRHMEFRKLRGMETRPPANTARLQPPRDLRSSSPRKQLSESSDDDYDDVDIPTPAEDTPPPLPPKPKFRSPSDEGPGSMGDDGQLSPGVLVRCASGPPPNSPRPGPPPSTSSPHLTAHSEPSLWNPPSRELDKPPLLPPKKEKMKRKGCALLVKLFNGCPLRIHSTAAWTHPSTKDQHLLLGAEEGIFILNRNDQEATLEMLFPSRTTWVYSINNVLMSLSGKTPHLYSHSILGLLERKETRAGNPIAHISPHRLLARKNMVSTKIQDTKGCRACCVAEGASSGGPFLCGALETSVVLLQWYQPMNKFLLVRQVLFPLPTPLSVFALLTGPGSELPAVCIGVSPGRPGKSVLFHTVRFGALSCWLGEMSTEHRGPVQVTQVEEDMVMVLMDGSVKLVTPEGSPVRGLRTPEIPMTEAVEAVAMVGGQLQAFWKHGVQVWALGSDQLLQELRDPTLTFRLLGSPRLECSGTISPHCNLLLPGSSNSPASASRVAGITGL
How it was run: as §1

[4] = target: T4, panel of 203 kinases (Homo sapiens, UniProt O15146); settings: 10 µM, n=1; kinase MUSK; read-out: Percent inhibition MUSK
T4 construct: purchased DiscoverX (KINOMEscan)
T4 sequence (O15146 24-869): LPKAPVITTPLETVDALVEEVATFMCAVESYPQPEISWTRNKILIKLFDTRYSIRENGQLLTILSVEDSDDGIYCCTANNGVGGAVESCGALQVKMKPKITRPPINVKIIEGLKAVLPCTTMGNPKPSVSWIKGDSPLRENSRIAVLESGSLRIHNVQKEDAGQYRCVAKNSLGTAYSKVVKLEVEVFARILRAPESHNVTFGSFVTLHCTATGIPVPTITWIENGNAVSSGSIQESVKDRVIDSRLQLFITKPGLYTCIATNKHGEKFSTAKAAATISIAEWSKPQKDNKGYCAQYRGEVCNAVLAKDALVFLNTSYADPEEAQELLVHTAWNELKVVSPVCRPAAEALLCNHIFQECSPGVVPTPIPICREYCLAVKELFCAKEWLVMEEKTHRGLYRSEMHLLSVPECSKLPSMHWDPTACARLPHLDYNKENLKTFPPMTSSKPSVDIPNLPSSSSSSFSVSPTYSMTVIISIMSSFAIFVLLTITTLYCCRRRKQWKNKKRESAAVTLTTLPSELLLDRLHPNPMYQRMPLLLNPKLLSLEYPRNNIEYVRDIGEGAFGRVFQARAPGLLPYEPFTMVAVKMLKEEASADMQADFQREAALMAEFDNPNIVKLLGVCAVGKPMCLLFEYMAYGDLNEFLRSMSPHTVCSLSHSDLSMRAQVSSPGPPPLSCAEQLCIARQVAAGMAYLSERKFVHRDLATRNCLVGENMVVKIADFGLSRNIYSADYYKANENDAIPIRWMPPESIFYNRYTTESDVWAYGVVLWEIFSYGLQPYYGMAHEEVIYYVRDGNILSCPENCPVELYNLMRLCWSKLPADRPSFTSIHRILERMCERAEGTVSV
How it was run: as §1

[5] = target: T5, panel of 203 kinases (Homo sapiens, UniProt P36896); settings: 10 µM, n=1; kinase ACVR1B; read-out: Percent inhibition ACVR1B
T5 construct: purchased DiscoverX (KINOMEscan)
T5 sequence (P36896 24-505): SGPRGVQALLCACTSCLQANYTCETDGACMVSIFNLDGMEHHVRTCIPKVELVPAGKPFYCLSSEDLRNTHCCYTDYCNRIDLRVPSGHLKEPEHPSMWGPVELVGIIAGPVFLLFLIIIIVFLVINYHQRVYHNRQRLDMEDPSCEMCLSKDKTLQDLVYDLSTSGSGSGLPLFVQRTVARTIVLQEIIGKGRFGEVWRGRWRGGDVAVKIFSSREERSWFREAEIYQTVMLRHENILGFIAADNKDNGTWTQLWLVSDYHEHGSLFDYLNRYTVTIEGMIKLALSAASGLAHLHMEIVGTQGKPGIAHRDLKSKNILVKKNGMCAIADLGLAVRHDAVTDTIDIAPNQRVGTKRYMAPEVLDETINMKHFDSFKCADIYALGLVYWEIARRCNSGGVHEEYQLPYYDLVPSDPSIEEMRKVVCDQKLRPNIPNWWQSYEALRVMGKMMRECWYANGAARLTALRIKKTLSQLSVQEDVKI
How it was run: as §1

[6] = target: T6, panel of 203 kinases (Homo sapiens, UniProt P42685); settings: 10 µM, n=1; kinase FRK; read-out: Percent inhibition FRK
T6 construct: purchased DiscoverX (KINOMEscan)
T6 sequence (P42685 whole entry): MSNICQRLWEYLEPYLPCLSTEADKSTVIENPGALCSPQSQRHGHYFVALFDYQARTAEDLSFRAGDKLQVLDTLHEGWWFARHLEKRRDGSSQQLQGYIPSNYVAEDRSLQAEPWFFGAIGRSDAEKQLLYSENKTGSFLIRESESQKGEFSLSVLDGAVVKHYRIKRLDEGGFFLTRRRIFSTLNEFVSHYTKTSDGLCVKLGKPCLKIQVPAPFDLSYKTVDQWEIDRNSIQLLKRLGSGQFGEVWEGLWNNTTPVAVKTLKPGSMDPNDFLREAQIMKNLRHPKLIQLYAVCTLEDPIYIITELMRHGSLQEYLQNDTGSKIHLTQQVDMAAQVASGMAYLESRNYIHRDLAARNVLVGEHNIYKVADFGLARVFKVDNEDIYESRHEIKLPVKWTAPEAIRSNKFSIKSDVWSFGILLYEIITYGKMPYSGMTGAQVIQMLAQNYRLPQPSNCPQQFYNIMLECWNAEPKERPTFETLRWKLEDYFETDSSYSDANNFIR
How it was run: as §1

[7] = target: T7, panel of 203 kinases (Homo sapiens, UniProt P22455); settings: 10 µM, n=1; kinase FGFR4; read-out: Percent inhibition FGFR4
T7 construct: purchased DiscoverX (KINOMEscan)
T7 sequence (P22455 22-802): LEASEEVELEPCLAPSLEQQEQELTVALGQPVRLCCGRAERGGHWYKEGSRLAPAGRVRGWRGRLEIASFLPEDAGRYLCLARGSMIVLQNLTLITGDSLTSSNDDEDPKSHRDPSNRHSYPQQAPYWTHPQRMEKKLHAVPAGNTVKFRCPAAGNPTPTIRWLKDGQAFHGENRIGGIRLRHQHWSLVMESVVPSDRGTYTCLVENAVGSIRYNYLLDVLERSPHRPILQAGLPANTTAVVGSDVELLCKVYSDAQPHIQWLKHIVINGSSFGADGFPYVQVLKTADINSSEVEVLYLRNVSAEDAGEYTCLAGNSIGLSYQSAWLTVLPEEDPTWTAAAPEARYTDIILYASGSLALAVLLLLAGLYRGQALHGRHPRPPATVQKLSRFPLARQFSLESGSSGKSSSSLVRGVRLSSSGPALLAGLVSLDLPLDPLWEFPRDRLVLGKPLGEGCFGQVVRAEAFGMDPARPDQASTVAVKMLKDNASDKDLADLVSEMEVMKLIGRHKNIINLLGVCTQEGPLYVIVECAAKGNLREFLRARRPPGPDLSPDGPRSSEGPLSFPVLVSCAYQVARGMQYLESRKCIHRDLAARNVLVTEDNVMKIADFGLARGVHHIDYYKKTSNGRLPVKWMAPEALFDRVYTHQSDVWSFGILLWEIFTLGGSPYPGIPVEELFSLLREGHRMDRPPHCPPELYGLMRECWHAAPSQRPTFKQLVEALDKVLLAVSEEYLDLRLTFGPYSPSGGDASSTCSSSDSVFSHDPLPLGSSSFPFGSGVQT
How it was run: as §1

[8] = target: T8, panel of 203 kinases (Homo sapiens, UniProt Q9H1R3); settings: 10 µM, n=1; kinase MYLK2; read-out: Percent inhibition MYLK2
T8 construct: purchased DiscoverX (KINOMEscan)
T8 sequence (Q9H1R3 whole entry): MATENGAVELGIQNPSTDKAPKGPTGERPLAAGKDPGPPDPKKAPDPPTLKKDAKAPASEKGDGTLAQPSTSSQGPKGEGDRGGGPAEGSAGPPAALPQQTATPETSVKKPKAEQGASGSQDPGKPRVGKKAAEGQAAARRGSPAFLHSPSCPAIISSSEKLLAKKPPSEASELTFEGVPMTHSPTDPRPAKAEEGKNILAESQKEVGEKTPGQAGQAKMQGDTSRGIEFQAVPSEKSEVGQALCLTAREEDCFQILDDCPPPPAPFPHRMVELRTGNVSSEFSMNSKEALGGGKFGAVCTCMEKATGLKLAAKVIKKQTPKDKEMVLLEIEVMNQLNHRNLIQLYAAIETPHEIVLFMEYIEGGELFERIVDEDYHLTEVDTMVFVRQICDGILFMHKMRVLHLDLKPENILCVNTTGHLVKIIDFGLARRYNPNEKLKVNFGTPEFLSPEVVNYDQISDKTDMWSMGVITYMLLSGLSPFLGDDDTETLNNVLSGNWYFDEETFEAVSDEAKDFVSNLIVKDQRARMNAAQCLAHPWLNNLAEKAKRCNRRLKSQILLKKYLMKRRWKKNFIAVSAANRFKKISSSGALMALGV
How it was run: as §1

[9] = target: T9, panel of 203 kinases (Homo sapiens, UniProt P78368); settings: 10 µM, n=1; kinase CSNK1G2; read-out: Percent inhibition CSNK1G2
T9 construct: purchased DiscoverX (KINOMEscan)
T9 sequence (P78368 whole entry): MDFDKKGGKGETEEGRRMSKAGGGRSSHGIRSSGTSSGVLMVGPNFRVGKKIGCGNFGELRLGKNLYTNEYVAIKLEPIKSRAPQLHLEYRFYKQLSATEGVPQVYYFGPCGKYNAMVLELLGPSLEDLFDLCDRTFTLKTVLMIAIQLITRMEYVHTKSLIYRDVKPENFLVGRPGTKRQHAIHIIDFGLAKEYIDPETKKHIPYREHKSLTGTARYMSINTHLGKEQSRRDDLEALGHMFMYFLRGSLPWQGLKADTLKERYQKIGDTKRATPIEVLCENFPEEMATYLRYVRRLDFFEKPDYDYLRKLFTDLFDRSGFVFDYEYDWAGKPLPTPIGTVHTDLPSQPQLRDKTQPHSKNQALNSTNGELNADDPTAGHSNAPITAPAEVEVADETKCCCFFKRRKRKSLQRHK
How it was run: as §1

T1 sequence (Q8N5S9 whole entry): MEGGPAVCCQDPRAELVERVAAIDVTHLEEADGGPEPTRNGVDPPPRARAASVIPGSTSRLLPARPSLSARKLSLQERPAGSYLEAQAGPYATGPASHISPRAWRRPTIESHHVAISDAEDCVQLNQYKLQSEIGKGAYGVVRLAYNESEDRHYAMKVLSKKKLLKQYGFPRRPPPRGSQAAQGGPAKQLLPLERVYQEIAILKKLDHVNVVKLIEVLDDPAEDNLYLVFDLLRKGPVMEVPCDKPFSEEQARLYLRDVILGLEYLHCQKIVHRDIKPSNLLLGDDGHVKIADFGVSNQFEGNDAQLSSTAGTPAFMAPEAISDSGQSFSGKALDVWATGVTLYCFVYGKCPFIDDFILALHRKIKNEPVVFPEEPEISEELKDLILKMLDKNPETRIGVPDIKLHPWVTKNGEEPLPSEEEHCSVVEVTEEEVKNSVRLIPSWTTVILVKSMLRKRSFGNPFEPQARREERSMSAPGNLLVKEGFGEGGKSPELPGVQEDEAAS

| SMILES | inhibition at 10 µM [1] [%] | inhibition at 10 µM [2] [%] | inhibition at 10 µM [3] [%] | inhibition at 10 µM [4] [%] | inhibition at 10 µM [5] [%] | inhibition at 10 µM [6] [%] | inhibition at 10 µM [7] [%] | inhibition at 10 µM [8] [%] | inhibition at 10 µM [9] [%] |
| --- | --- | --- | --- | --- | --- | --- | --- | --- | --- |
| C[C@@H](Oc1cc(-c2cnc3ccccn23)sc1C(N)=O)c1ccccc1Cl [Compound 8] | 0 | 0 | 0 | 0 | 0 | 0 | 0 | 66.5 | 0 |
| Cc1ccc(O)cc1N(C)c1ccnc(Nc2cccc(S(N)(=O)=O)c2)n1 [Compound 4] | 0 | 100 | 99.5 | 0 | 99 | 99.5 | 0 | 0 | 75.8 |
| COc1cc(Nc2nccc(-c3sc(N)nc3-c3cccc(NC(=O)c4c(F)cccc4F)c3)n2)cc(OC)c1OC [Compound 7] | 0 | 100 | 96.3 | 97.2 | 74.9 | 100 | 100 | 97 | 0 |
| CN1CCN(c2ccc(Nc3nccc(-c4cnn5ncccc45)n3)cc2C#N)CC1 [Compound 1] | 99.2 | 99.4 | 99.5 | 98.8 | 77.1 | 91.8 | 0 | 96.8 | 88.3 |
| Fc1cccc(COc2ccc(Nc3ncnc4c3CN(CCN3CCOCC3)CC4)cc2Cl)c1 [Compound 6] | 0 | 0 | 0 | 0 | 0 | 0 | 0 | 0 | 0 |
| Cc1ccc(O)cc1Nc1ccnc(Nc2cccc(C(N)=O)c2)n1 [Compound 3] | 0 | 98.9 | 83.9 | 0 | 96.5 | 99.6 | 82.4 | 83.2 | 93.3 |
| Clc1ccc(Nc2ncc(-c3ccccc3)s2)cc1 [Compound 10] | 0 | 0 | 0 | 0 | 0 | 0 | 0 | 0 | 0 |
| COc1ccc(Nc2nccc(-c3cnn4ncccc34)n2)cc1 [Compound 2] | 97.4 | 99.8 | 0 | 74.8 | 0 | 0 | 0 | 80.5 | 93.6 |
| c1ccc(COc2cccc(-c3ccnc4[nH]ccc34)c2)cc1 [Compound 9] | 0 | 0 | 0 | 0 | 0 | 0 | 0 | 0 | 0 |
| Nc1ncc2c(-c3ccncc3)c[nH]c2n1 [Compound 11] | 0 | 0 | 0 | 93.9 | 0 | 0 | 0 | 84.9 | 89.7 |
